B1: Fas ligand: human recombinant Fas ligand, protein having the amino acid sequence SEQ ID NO: 1 (protein, listed as Homo sapiens)
chain: MQQPFNYPYPQIYWVDSSASSPWAPPGTVLPCPTSVPRRPGQRRPPPPPPPPPLPPPPPPPPLPPLPLPPLKKRGNHSTGLCLLVMFFMVLVALVGLGLGMFQLFHLQKELAELRESTSQMHTASSLEKQIGHPSPPPEKKELRKVAHLTGKSNSRSMPLEWEDTYGIVLLSGVKYKKGGLVINETGLYFVYSKVYFRGQSCNNLPLSHKVYMRNSKYPQDLVMMEGKMMSYCTTGQMWARSSYLGAVFNLTSADHLYVNVSELSLVNFEESQTFFGLYK

What was measured:
[1] = tested on: U87 cells; format: cell-based; conditions: for cell viability in U87 cells, drug combined with Fas ligand: Fas ligand 400 ng/mL with 40 μM Fasudil, 10 μM Blebbistatin or 20 μM GW5074
Description: FIGS. 3A-3E: Fortified Fas-mediated apoptosis in cancer cells. […] FIG. 3B: representative light microscopy images of U87 cells showing the effect of Fasudil-Fas ligand combination. For the other cancer cell types see FIG. 7. Fasudil-Fas ligand combination decreased the viability of A549, HepG2, SUM159, PC3, and BT549 cells synergistically (FIGS. 3C-3D).
(§1) After showing that Fas receptor expression on the cell surface can be increased with different ques targeting cytoskeletal tension, the Fas-mediated apoptosis triggered by the exogenous Fas ligand when combined with Fasudil, Blebbistain, or GW5074 was studied. The cell viability by quantifying the ATP level present in the cell culture medium after 48 hours of treatment was assessed.

[2] = tested on: surface Fas receptors of cancer cells (U87, A549, HepG2, PC3, and SUM159 cells); experiment: Immunostaining of surface Fas receptors on cancer cells; format: cell-based; conditions: 2 hours; 40 μM Fasudil, 10 μM Blebbistatin or 20 μM GW5074; range over U87, A549, HepG2, PC3, SUM159
Description: (§2) FIGS. 2A-2E: Fas receptor expression on the cancer cell surface. FIG. 2A: Addition of either Fasudil, Blebbistatin, or GW5074 to the cell culture medium for 2 hours increased the Fas receptor staining on the cancer cells, but not on HUVECs. […] Fold increase of Fas staining density as response to treatment with FIG. 2C: Fasudil, FIG. 2D: Blebbisatin, and FIG. 2E: GW5074.
In the present study, the effect of the ROCK inhibitor Fasudil, Myosin-II inhibitor Blebbistatin, or the Raf-1 inhibitor GW5074 on Fas receptor translocation on surface of U87, A549, HepG2, PC3, and SUM159 cells was evaluated. The effect of these drugs on cell viability when used alone or in combination with exogenous, recombinant Fas ligand was analyzed. Next, the effects of Fasudil and Fas ligand combination on glioblastoma growth and on viability of non-cancerous cells in engineered brain organoids was investigated. Finally, the in vivo efficacy of the Fasudil-Fas ligand combination on preventing tumor growth in a xenograft U87 tumor model in nude mice was tested.
(§3) It was speculated that the active Raf-1, due to increased intracellular tension in cancer cell, can cause lack of Fas receptors on the cell surface and that either inhibition of Raf-1 or reduction of mechanical tension in the cytoskeleton can restore the Fas receptors on cell surface. To test this theory, U87 (glioblastoma), A549 (non-small cell lung cancer, resistant to apoptosis, FAS ligand alone increases proliferation), HepG2 (liver cancer), PC3 (prostate cancer), and SUM159 (triple negative breast cancer) cells were treated either with 20 μM Raf-1 inhibitor GW5074, 40 μM ROCK inhibitor Fasudil, or 10 μM myosin inhibitor Blebbistatin for 2 hours.

[3] = tested on: Fas receptors on HUVECs; experiment: Immunostaining of surface Fas receptors on HUVECs; format: cell-based; conditions: 2 hours; regardless of the treatment
Description: as §2, §3

[4] = tested on: U87 xenograft tumor; experiment: U87 xenograft tumor model in nude mice; format: in vivo; conditions: for average tumor size: one month after tumor initiation, intraperitoneal injection twice a week for four weeks; for median survival probability: terminal point 1000 mm^3
Description: Further, the anti-tumor efficacies of Fas ligand and Fasudil combination using a U87 xenograft tumor model in nude mice were evaluated. Fas ligand and Fasudil were administrated by intraperitoneal injection when the subcutaneous tumor grew to palpable size >50 mm^3 twice a week for four weeks. The mice were primed with either Fasudil or saline 24 hours before the injection of Fasudil and Fas ligand together. Only Fasudil, only Fas ligand, and only saline injections were made in the control groups. 7-10 mice with tumor volumes ranging from 50-200 mm^3 were randomly assigned to each treatment arm. Terminal point for the tumor growth was determined as 1000 mm^3.

[5] = tested on: HepG2 cells; format: cell-based
Description: as §1

[6] = tested on: A549 cells; format: cell-based
Description: as §1

[7] = tested on: PC3 cells; format: cell-based
Description: as §1

[8] = tested on: BT549 cells; format: cell-based
Description: as §1

[9] = tested on: SUM159 cells; format: cell-based
Description: as §1

Row | Molecule | cell viability in U87 cells, drug combined with Fas ligand [1] | increase of immunostaining of surface Fas receptors of cancer cells [2] | Fas staining of HUVECs [3] | average tumor size [4] [mm3] | median survival probability [4] [%] | cell viability [5] | cell viability [6] | cell viability [7] | cell viability [8] | cell viability [9] | cell viability [1]
1 | Cc1ccc2c(c1)C(=O)C1(O)CCN(c3ccccc3)C1=N2 (stereo not shown) [Blebbistatin, blebbistatin] | decreased cell viability significantly | 1.76-2.15 folds | negligible |  |  |  |  |  |  |  | 
2 | O=S(=O)(c1cccc2cnccc12)N1CCCNCC1 [Fasudil, fasudil] | decreased cell viability significantly | 2.12-3.28 folds | negligible | 584.4±113.8 | 28 |  |  |  |  |  | 
3 | O=C1Nc2ccc(I)cc2/C1=C/c1cc(Br)c(O)c(Br)c1 [GW5074] | decreased cell viability significantly | 1.62-2.30 folds | negligible |  |  |  |  |  |  |  | 
4 | B1 |  |  |  | 602.2±195.7 | 27 | 44.6 % of the control | 67.8 % of the control | 80.2 % of the control | 58.0 % of the control | 59.9 % of the control | 55.6 % of the control

Source: patent publication US20240350512A1, “CYTOSKELETAL TENSION REGULATORS AND FAS LIGAND-COMBINATION COMPOSITIONS AND METHODS OF TREATMENT USING THE SAME” (Yale University, priority 2021, published 2024)
